Test results reported in US8895585B2, “Nicotinamide derivative or salt thereof” (FUJIFILM Corporation, priority 2010, dated 2014).

What was measured:
[1] = molecular target: T1, glutathione S-transferase (GST)-fused full-length human Syk protein (Homo sapiens, UniProt P43405); assay: Syk enzyme assay; type: biochemical; details: Syk enzyme assay, Test Example 1; read-out: IC50 of Syk-inhibitory activity
T1 construct: (GST)-fused full-length human Syk protein; GST (glutathione S-transferase); purchased Carna Biosciences
Outline: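 GST-tagged full-length human Syk (baculovirus) preincubated with compound 15 min at room temperature (pH 7.0, 10 mM MgCl2), then reacted 40 min with 0.4 μM biotinylated peptide substrate and 27 μM ATP (final). Phosphorylation read by HTRF (615/665 nm) after EDTA stop; IC50 reported.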

[2] = tested on: THP-1 cells; assay: TNFα generation assay; type: cell-based, human; details: Homo sapiens, THP-1, THP-1 cells; Table 22; read-out: IC50 in TNFα generation assay
Outline: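 Secreted TNFα in supernatant quantified by ELISA or AlphaLISA after 7 h culture on human IgG-coated wells (10 μg/ml coating). Cells were IFN-γ-differentiated THP-1 (10 ng/ml, 2 days), exposed to compound for 30 min at room temperature before plating.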

| IC50 [1] | IC50 [2] | SMILES |
| --- | --- | --- |
| < 10 nM | 65 to 130 nM | Cc1nn(CCF)c2cc(Nc3nc(N[C@H](CC4CC4)[C@H](C)N)c(F)cc3C(N)=O)ccc12 [Example 006-488, 6-(((2R,3S)-3-amino-1-cyclopropylbutan-2-yl)amino)-5-fluoro-2-((1-(2-fluoroethyl)-3-methyl-1H-indazol-6-yl)amino)nicotinamide] |
| < 10 nM | 130 to 200 nM | Cc1nn(CC(F)F)c2cc(Nc3nc(N[C@H](CC4CC4)[C@H](C)N)c(F)cc3C(N)=O)ccc12 [Example 006-489, 6-(((2R,3S)-3-amino-1-cyclopropylbutan-2-yl)amino)-2-((1-(2,2-difluoroethyl)-3-methyl-1H-indazol-6-yl)amino)-5-fluoronicotinamide] |
| 10 to 50 nM | 130 to 200 nM | COc1ncc(Nc2nc(N[C@@H]3CCCC[C@@H]3N)c(F)cc2C(N)=O)cc1-n1ccnn1 [Example 006-493, 6-(((1R,2S)-2-aminocyclohexyl)amino)-5-fluoro-2-((6-methoxy-5-(1H-1,2,3-triazol-1-yl)pyridin-3-yl)amino)nicotinamide] |
| 10 to 50 nM | 130 to 200 nM | CCOc1ncc(Nc2nc(N[C@@H]3CCCC[C@@H]3N)c(F)cc2C(N)=O)cc1-n1cccn1 [Example 006-494, 6-(((1R,2S)-2-aminocyclohexyl)amino)-2-((6-ethoxy-5-(1H-pyrazol-1-yl)pyridin-3-yl)amino)-5-fluoronicotinamide] |
| < 10 nM | 130 to 200 nM | CCOc1ncc(Nc2nc(N[C@@H]3CCCC[C@@H]3N)c(F)cc2C(N)=O)cc1-n1nccn1 [Example 006-495, 6-(((1R,2S)-2-aminocyclohexyl)amino)-2-((6-ethoxy-5-(2H-1,2,3-triazol-2-yl)pyridin-3-yl)amino)-5-fluoronicotinamide] |
| < 10 nM | 65 to 130 nM | CCOc1ncc(Nc2nc(N[C@@H]3CCCC[C@@H]3N)c(F)cc2C(N)=O)cc1-n1ccnn1 [Example 006-496, 6-(((1R,2S)-2-aminocyclohexyl)amino)-2-((6-ethoxy-5-(1H-1,2,3-triazol-1-yl)pyridin-3-yl)amino)-5-fluoronicotinamide] |
| < 10 nM | 65 to 130 nM | CCOc1ncc(Nc2nc(N[C@@H]3CCCC[C@@H]3N)c(F)cc2C(N)=O)cc1C [Example 006-497, 6-(((1R,2S)-2-aminocyclohexyl)amino)-2-((6-ethoxy-5-methylpyridin-3-yl)amino)-5-fluoronicotinamide] |
| < 10 nM | 65 to 130 nM | COCCOc1ncc(Nc2nc(N[C@@H]3CCCC[C@@H]3N)c(F)cc2C(N)=O)cc1C [Example 006-498, 6-(((1R,2S)-2-aminocyclohexyl)amino)-5-fluoro-2-((6-(2-methoxyethoxy)-5-methylpyridin-3-yl)amino)nicotinamide] |
| 10 to 50 nM | 130 to 200 nM | Cc1cc(Nc2nc(N[C@@H]3CCCC[C@@H]3N)c(F)cc2C(N)=O)cnc1-n1cccn1 [Example 006-499, 6-(((1R,2S)-2-aminocyclohexyl)amino)-5-fluoro-2-((5-methyl-6-(1H-pyrazol-1-yl)pyridin-3-yl)amino)nicotinamide] |
| 10 to 50 nM | 65 to 130 nM | Cc1cc(Nc2nc(N[C@@H]3CCCC[C@@H]3N)c(F)cc2C(N)=O)cnc1-n1nccn1 [Example 006-500, 6-(((1R,2S)-2-aminocyclohexyl)amino)-5-fluoro-2-((5-methyl-6-(2H-1,2,3-triazol-2-yl)pyridin-3-yl)amino)nicotinamide] |
| 10 to 50 nM | 130 to 200 nM | Cc1cc(Nc2nc(N[C@@H]3CCCC[C@@H]3N)c(F)cc2C(N)=O)cnc1-n1ccnn1 [Example 006-501, 6-(((1R,2S)-2-aminocyclohexyl)amino)-5-fluoro-2-((5-methyl-6-(1H-1,2,3-triazol-1-yl)pyridin-3-yl)amino)nicotinamide] |
| < 10 nM | 65 to 130 nM | CCc1ncc(Nc2nc(N[C@@H]3CCCC[C@@H]3N)c(F)cc2C(N)=O)cc1C [Example 006-502, 6-(((1R,2S)-2-aminocyclohexyl)amino)-2-((6-ethyl-5-methylpyridin-3-yl)amino)-5-fluoronicotinamide] |
| < 10 nM | 65 to 130 nM | Cc1cc(Nc2nc(N[C@@H]3CCCC[C@@H]3N)c(F)cc2C(N)=O)cnc1C1CC1 [Example 006-503, 6-(((1R,2S)-2-aminocyclohexyl)amino)-2-((6-cyclopropyl-5-methylpyridin-3-yl)amino)-5-fluoronicotinamide] |
| < 10 nM | 130 to 200 nM | CCc1nn(C)c2ccc(Nc3nc(N[C@H](CC4CC4)[C@H](C)N)c(F)cc3C(N)=O)cc12 [Example 006-505, 6-(((2R,3S)-3-amino-1-cyclopropylbutan-2-yl)amino)-2-((3-ethyl-1-methyl-1H-indazol-5-yl)amino)-5-fluoronicotinamide] |
| < 10 nM | 130 to 200 nM | CCc1nn(CC)c2ccc(Nc3nc(N[C@H](CC4CC4)[C@H](C)N)c(F)cc3C(N)=O)cc12 [Example 006-506, 6-(((2R,3S)-3-amino-1-cyclopropylbutan-2-yl)amino)-2-((1,3-diethyl-1H-indazol-5-yl)amino)-5-fluoronicotinamide] |
| < 10 nM | 130 to 200 nM | CC(C)c1nn(C)c2ccc(Nc3nc(N[C@H](CC4CC4)[C@H](C)N)c(F)cc3C(N)=O)cc12 [Example 006-507, 6-(((2R,3S)-3-amino-1-cyclopropylbutan-2-yl)amino)-5-fluoro-2-((3-isopropyl-1-methyl-1H-indazol-5-yl)amino)nicotinamide] |
| < 10 nM | 65 to 130 nM | CCn1ncc2c(Nc3nc(N[C@H](CC4CC4)[C@H](C)N)c(F)cc3C(N)=O)cccc21 [Example 006-508, 6-(((2R,3S)-3-amino-1-cyclopropylbutan-2-yl)amino)-2-((1-ethyl-1H-indazol-4-yl)amino)-5-fluoronicotinamide] |
| < 10 nM | 65 to 130 nM | CCn1nc(F)c2cc(Nc3nc(N[C@H](CC4CC4)[C@H](C)N)c(F)cc3C(N)=O)ccc21 [Example 006-509, 6-(((2R,3S)-3-amino-1-cyclopropylbutan-2-yl)amino)-2-((1-ethyl-3-fluoro-1H-indazol-5-yl)amino)-5-fluoronicotinamide] |
| < 10 nM | 65 to 130 nM | C[C@H](N)[C@@H](CC1CC1)Nc1nc(Nc2ccc3c(c2)c(F)nn3CC(F)F)c(C(N)=O)cc1F [Example 006-510, 6-(((2R,3S)-3-amino-1-cyclopropylbutan-2-yl)amino)-2-((1-(2,2-difluoroethyl)-3-fluoro-1H-indazol-5-yl)amino)-5-fluoronicotinamide] |
| < 10 nM | < 65 nM | CC(C)C[C@@H](Nc1nc(Nc2ccc3c(c2)c(F)nn3C)c(C(N)=O)cc1F)[C@H](C)N [Example 006-511, 6-(((2S,3R)-2-amino-5-methylhexan-3-yl)amino)-5-fluoro-2-((3-fluoro-1-methyl-1H-indazol-5-yl)amino)nicotinamide] |
| < 10 nM | 65 to 130 nM | CCn1nc(F)c2cc(Nc3nc(N[C@H](CC(C)C)[C@H](C)N)c(F)cc3C(N)=O)ccc21 [Example 006-512, 6-(((2S,3R)-2-amino-5-methylhexan-3-yl)amino)-2-((1-ethyl-3-fluoro-1H-indazol-5-yl)amino)-5-fluoronicotinamide] |
